Test results reported in PubChem BioAssay (NCI).
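Cultured in 96-well plates, cells were exposed to test compound for 48 hours across five concentrations. GI50 = concentration required for 50% inhibition of growth. TGI: concentration producing complete growth inhibition.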

Legend:
Assay in all cases: NCI-60 cell line screen, 48 h
SK-MEL-2 melanoma = tested on: SK-MEL-2 melanoma
HOP-92 NSCLC = tested on: HOP-92 NSCLC
MOLT-4 leukemia = tested on: MOLT-4 leukemia
SK-OV-3 ovarian = tested on: SK-OV-3 ovarian
SF-268 CNS = tested on: SF-268 CNS
NCI/ADR-RES ovarian = tested on: NCI/ADR-RES ovarian
LOX IMVI melanoma = tested on: LOX IMVI melanoma
OVCAR-5 ovarian = tested on: OVCAR-5 ovarian
NCI-H226 lung = tested on: NCI-H226 lung
NCI-H460 lung = tested on: NCI-H460 lung
SF-539 CNS = tested on: SF-539 CNS
DU-145 prostate = tested on: DU-145 prostate
A498 renal = tested on: A498 renal
SF-295 CNS = tested on: SF-295 CNS
MDA-MB-231 breast = tested on: MDA-MB-231 breast
HCT-116 colon = tested on: HCT-116 colon
U251 CNS = tested on: U251 CNS
UACC-62 melanoma = tested on: UACC-62 melanoma
BT-549 breast = tested on: BT-549 breast
HCC-2998 colon = tested on: HCC-2998 colon
UO-31 renal = tested on: UO-31 renal
SR leukemia = tested on: SR leukemia
M14 melanoma = tested on: M14 melanoma
SNB-75 CNS = tested on: SNB-75 CNS
OVCAR-8 ovarian = tested on: OVCAR-8 ovarian
MCF7 breast = tested on: MCF7 breast
HOP-62 NSCLC = tested on: HOP-62 NSCLC
SK-MEL-28 melanoma = tested on: SK-MEL-28 melanoma
PC-3 prostate = tested on: PC-3 prostate
HCT-15 colon = tested on: HCT-15 colon
OVCAR-3 ovarian = tested on: OVCAR-3 ovarian
RXF 393 renal = tested on: RXF 393 renal
CAKI-1 renal = tested on: CAKI-1 renal
SW-620 colon = tested on: SW-620 colon
UACC-257 melanoma = tested on: UACC-257 melanoma
NCI-H23 lung = tested on: NCI-H23 lung
HL-60(TB) leukemia = tested on: HL-60(TB) leukemia
TK-10 renal = tested on: TK-10 renal
K-562 leukemia = tested on: K-562 leukemia
786-0 renal = tested on: 786-0 renal
CCRF-CEM leukemia = tested on: CCRF-CEM leukemia
IGROV1 ovarian = tested on: IGROV1 ovarian
RPMI-8226 leukemia = tested on: RPMI-8226 leukemia
SN12C renal = tested on: SN12C renal
MDA-MB-435 = tested on: MDA-MB-435
EKVX NSCLC = tested on: EKVX NSCLC
T-47D breast = tested on: T-47D breast
KM12 colon = tested on: KM12 colon
HS 578T breast = tested on: HS 578T breast
ACHN renal = tested on: ACHN renal
COLO 205 colon = tested on: COLO 205 colon
SK-MEL-5 melanoma = tested on: SK-MEL-5 melanoma
A549 NSCLC = tested on: A549 NSCLC
MALME-3M melanoma = tested on: MALME-3M melanoma
HT29 colon = tested on: HT29 colon
SNB-19 CNS = tested on: SNB-19 CNS
OVCAR-4 ovarian = tested on: OVCAR-4 ovarian
NCI-H522 lung = tested on: NCI-H522 lung

`COC(=O)[C@H](C)NC(=O)NC(=O)NC(=O)CI` showed a GI50 (SK-MEL-2 melanoma) of 15.4 µM, a TGI (SK-MEL-2 melanoma) of 29.9 µM and a GI50 (HOP-92 NSCLC) of 6.79 µM. The TGI (HOP-92 NSCLC) was 19.7 µM, the GI50 (MOLT-4 leukemia) was 2.21 µM and the TGI (MOLT-4 leukemia) was 5.17 µM. The GI50 (SK-OV-3 ovarian) was 19 µM, the TGI (SK-OV-3 ovarian) was 39.1 µM and the GI50 (SF-268 CNS) was 17.2 µM. The TGI (SF-268 CNS) was 36.3 µM, the GI50 (NCI/ADR-RES ovarian) was 19.1 µM and the TGI (NCI/ADR-RES ovarian) was 43 µM. For the same molecule, the GI50 (LOX IMVI melanoma) was 2.27 µM, the TGI (LOX IMVI melanoma) was 5.97 µM and the GI50 (OVCAR-5 ovarian) was 16.7 µM. For the same molecule, the TGI (OVCAR-5 ovarian) was 36 µM, the GI50 (NCI-H226 lung) was 19.8 µM and the TGI (NCI-H226 lung) was 44.9 µM. For the same molecule, the GI50 (NCI-H460 lung) was 20.1 µM, the TGI (NCI-H460 lung) was 40.8 µM and the GI50 (SF-539 CNS) was 15.9 µM. It also gave a TGI (SF-539 CNS) of 30.3 µM, a GI50 (DU-145 prostate) of 15.4 µM and a TGI (DU-145 prostate) of 29.2 µM. The GI50 (A498 renal) was 15.4 µM, the TGI (A498 renal) was 30.4 µM and the GI50 (SF-295 CNS) was 17.4 µM. The TGI (SF-295 CNS) was 33.1 µM, the GI50 (MDA-MB-231 breast) was 18.8 µM and the TGI (MDA-MB-231 breast) was 37.9 µM. For the same molecule, the GI50 (HCT-116 colon) was 13.9 µM, the TGI (HCT-116 colon) was 28.4 µM and the GI50 (U251 CNS) was 17.3 µM. It also gave a TGI (U251 CNS) of 31.4 µM, a GI50 (UACC-62 melanoma) of 16.8 µM and a TGI (UACC-62 melanoma) of 34.2 µM. It also gave a GI50 (BT-549 breast) of 15 µM, a TGI (BT-549 breast) of 28.6 µM and a GI50 (HCC-2998 colon) of 17.3 µM. For the same molecule, the TGI (HCC-2998 colon) was 33.6 µM, the GI50 (UO-31 renal) was 6.83 µM and the TGI (UO-31 renal) was 20.1 µM. It also gave a GI50 (SR leukemia) of 2.43 µM, a TGI (SR leukemia) of 5.94 µM and a GI50 (M14 melanoma) of 11.8 µM. The TGI (M14 melanoma) was 27.5 µM, the GI50 (SNB-75 CNS) was 15.9 µM and the TGI (SNB-75 CNS) was 30.3 µM. It also gave a GI50 (OVCAR-8 ovarian) of 16.6 µM, a TGI (OVCAR-8 ovarian) of 33.9 µM and a GI50 (MCF7 breast) of 10.2 µM. It also gave a TGI (MCF7 breast) of 29.8 µM, a GI50 (HOP-62 NSCLC) of 17.2 µM and a TGI (HOP-62 NSCLC) of 32.6 µM. For the same molecule, the GI50 (SK-MEL-28 melanoma) was 14.4 µM, the TGI (SK-MEL-28 melanoma) was 29.9 µM and the GI50 (PC-3 prostate) was 17.1 µM. For the same molecule, the TGI (PC-3 prostate) was 32.2 µM, the GI50 (HCT-15 colon) was 5.26 µM and the TGI (HCT-15 colon) was 18 µM. For the same molecule, the GI50 (OVCAR-3 ovarian) was 12.3 µM, the TGI (OVCAR-3 ovarian) was 25.2 µM and the GI50 (RXF 393 renal) was 12.5 µM. The TGI (RXF 393 renal) was 25.5 µM, the GI50 (CAKI-1 renal) was 2.53 µM and the TGI (CAKI-1 renal) was 6.73 µM. For the same molecule, the GI50 (SW-620 colon) was 16.5 µM, the TGI (SW-620 colon) was 34.4 µM and the GI50 (UACC-257 melanoma) was 15.8 µM. It also gave a TGI (UACC-257 melanoma) of 29.9 µM, a GI50 (NCI-H23 lung) of 16.8 µM and a TGI (NCI-H23 lung) of 36.9 µM. The GI50 (HL-60(TB) leukemia) was 2.15 µM, the TGI (HL-60(TB) leukemia) was 4.51 µM and the GI50 (TK-10 renal) was 16.9 µM. The TGI (TK-10 renal) was 30.6 µM, the GI50 (K-562 leukemia) was 4.16 µM and the TGI (K-562 leukemia) was 17 µM. For the same molecule, the GI50 (786-0 renal) was 17.3 µM, the TGI (786-0 renal) was 32.1 µM and the GI50 (CCRF-CEM leukemia) was 2.03 µM. For the same molecule, the TGI (CCRF-CEM leukemia) was 4.44 µM, the GI50 (IGROV1 ovarian) was 17.1 µM and the TGI (IGROV1 ovarian) was 35.4 µM. For the same molecule, the GI50 (RPMI-8226 leukemia) was 3.64 µM, the TGI (RPMI-8226 leukemia) was 18.3 µM and the GI50 (SN12C renal) was 19.8 µM. For the same molecule, the TGI (SN12C renal) was 39.3 µM, the GI50 (MDA-MB-435) was 10.3 µM and the TGI (MDA-MB-435) was 23.5 µM. It also gave a GI50 (EKVX NSCLC) of 17.5 µM, a TGI (EKVX NSCLC) of 32 µM and a GI50 (T-47D breast) of 7.46 µM. It also gave a TGI (T-47D breast) of 32.2 µM, a GI50 (KM12 colon) of 17.8 µM and a TGI (KM12 colon) of 35.5 µM. It also gave a GI50 (HS 578T breast) of 21.4 µM, a TGI (HS 578T breast) of 54.1 µM and a GI50 (ACHN renal) of 6.76 µM. For the same molecule, the TGI (ACHN renal) was 21 µM, the GI50 (COLO 205 colon) was 2.54 µM and the TGI (COLO 205 colon) was 6.49 µM. The GI50 (SK-MEL-5 melanoma) was 17.6 µM, the TGI (SK-MEL-5 melanoma) was 31.8 µM and the GI50 (A549 NSCLC) was 20 µM. It also gave a TGI (A549 NSCLC) of 36.3 µM, a GI50 (MALME-3M melanoma) of 2.07 µM and a TGI (MALME-3M melanoma) of 5.13 µM. For the same molecule, the GI50 (HT29 colon) was 18.1 µM, the TGI (HT29 colon) was 36.4 µM and the GI50 (SNB-19 CNS) was 19.8 µM. It also gave a TGI (SNB-19 CNS) of 43.1 µM, a GI50 (OVCAR-4 ovarian) of 11.6 µM and a TGI (OVCAR-4 ovarian) of 24.4 µM. It also gave a GI50 (NCI-H522 lung) of 1.96 µM and a TGI (NCI-H522 lung) of 3.68 µM.
